Patent US7101886B2, “Phenylalkyl and pyridylalkyl piperazine derivatives” (Warner Lambert Company, priority 2002, dated 2006)
pKi: −log10 of the molar value.

Assays:
dopamine D2 receptor = target: T1, dopamine D2 receptor (Homo sapiens, UniProt P14416); test: Dopamine D2 receptor binding ([3H]spiperone radioligand binding); settings: [3H]spiperone binding, membrane preparation from CHO-hD2L cells
T1 construct: expressed in transfected cells; host or cells: CHO cells (CHO-hD2L), membrane preparation
Excerpt: (§1) The ability of the compounds of this invention to bind to the dopamine D2 and serotonin 2A (5HT2A) receptors can be determined using conventional radioligand receptor binding assays. All receptors can be heterologously expressed in cell lines and experiments conducted in membrane preparations from the cell lines using procedures outlined below. IC50 concentrations can be determined by nonlinear regression of concentration-dependent reduction in specific binding. The Cheng-Prussoff equation can be used to convert the IC50 to Ki concentrations.
Dopamine D2 Receptor Binding:
[^3H]Spiperone binding to a membrane preparation from CHO-hD2L cells is carried out in 250 μl of 50 mM Tris-HCl buffer containing 100 mM NaCl, 1 mM MgCl2 and 1% DMSO at pH 7.4. Duplicate samples containing (in order of addition) the test compounds, 0.4 nM [^3H]spiperone and approximately 12 μg protein are incubated for 120 minutes at room temperature. Bound radioligand is separated by rapid filtration under reduced pressure through Whatman GF/B glass fiber filters previously treated with 0.3% polyethyleneimine. Radioactivity retained on the filter is determined by liquid scintillation spectrophotometry.
The title compounds of Examples 1–524 were tested using the above assay, in which specific binding determined in the presence of 1 mM haloperidol was 95%.

[1] = target: T2, serotonin 2A (5HT2A) receptor (Homo sapiens, UniProt P28223); test: Serotonin 2A binding ([3H]ketanserin radioligand binding); settings: [3H]ketanserin binding, Swiss-h5HT2A cell membranes
T2 construct: expressed in transfected cells; host or cells: Swiss cells (Swiss-h5HT2A)
Excerpt: as §1
[^3H] Ketanserin binding to Swiss-h5HT2A cell membranes can be carried out in 250 μl of 50 mM Tris-HCl buffer pH 7.4. Duplicate samples containing (in order of addition) test compounds, 1.0 nM [^3H]ketanserin, and approximately 75 μg protein are incubated for 120 minutes at room temperature. Bound radioligand is separated by rapid filtration under reduced pressure through Whatman GF/B glass fiber filters previously treated with 0.3% polyethyleneimine. Radioactivity retained on the filter is determined by liquid scintillation spectrophotometry.
The title compounds of Examples 1–524 were tested using the above assay, in which specific binding determined in the presence of 1 mM ketanserin was 90%.

T1 sequence (P14416 whole entry): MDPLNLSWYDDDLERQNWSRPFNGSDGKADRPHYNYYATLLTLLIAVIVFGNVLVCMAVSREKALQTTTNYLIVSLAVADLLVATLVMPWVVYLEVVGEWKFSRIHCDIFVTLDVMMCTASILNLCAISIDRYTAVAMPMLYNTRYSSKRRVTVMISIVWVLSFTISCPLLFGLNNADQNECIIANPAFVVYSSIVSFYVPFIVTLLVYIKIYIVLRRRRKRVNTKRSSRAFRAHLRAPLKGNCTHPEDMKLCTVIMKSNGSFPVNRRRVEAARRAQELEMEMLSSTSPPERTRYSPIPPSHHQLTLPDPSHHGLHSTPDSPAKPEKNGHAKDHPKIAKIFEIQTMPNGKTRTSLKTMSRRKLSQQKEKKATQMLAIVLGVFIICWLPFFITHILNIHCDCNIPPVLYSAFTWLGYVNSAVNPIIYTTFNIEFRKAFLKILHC
T2 sequence (P28223 whole entry): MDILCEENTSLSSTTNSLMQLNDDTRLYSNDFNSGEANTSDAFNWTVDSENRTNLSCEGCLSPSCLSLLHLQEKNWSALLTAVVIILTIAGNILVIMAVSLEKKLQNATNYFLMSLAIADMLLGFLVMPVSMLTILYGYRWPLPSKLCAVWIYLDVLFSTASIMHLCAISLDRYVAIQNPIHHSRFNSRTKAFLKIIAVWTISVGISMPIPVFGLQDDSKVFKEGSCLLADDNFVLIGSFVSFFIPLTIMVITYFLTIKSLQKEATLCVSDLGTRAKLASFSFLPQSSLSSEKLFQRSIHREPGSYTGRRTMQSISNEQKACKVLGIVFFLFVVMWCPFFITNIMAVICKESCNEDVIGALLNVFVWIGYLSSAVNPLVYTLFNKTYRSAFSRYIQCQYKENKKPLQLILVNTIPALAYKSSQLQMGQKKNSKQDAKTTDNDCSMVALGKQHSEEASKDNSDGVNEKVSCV

| SMILES | melting point | pKi (dopamine D2 receptor) | pKi [1] |
| --- | --- | --- | --- |
| O=C(Cc1cccs1)Nc1ccc(OCCN2CCN(c3nsc4ccccc34)CC2)cc1 | 142 °C |  |  |
| CC(=O)OC(C)C(=O)Nc1ccc(OCCN2CCN(c3nsc4ccccc34)CC2)cc1 (centres unmarked) | 90 °C |  |  |
| Cc1nn(C)c(Cl)c1S(=O)(=O)Nc1ccc(OCCN2CCN(c3nsc4ccccc34)CC2)cc1 | 85 °C |  |  |
| Cc1nc(S(=O)(=O)Nc2ccc(OCCN3CCN(c4nsc5ccccc45)CC3)cc2)cn1C | 227 °C |  |  |
| CC(=O)Nc1ccc(S(=O)(=O)Nc2ccc(OCCN3CCN(c4nsc5ccccc45)CC3)cc2)cc1 | 120 °C |  |  |
| COc1cc(CCN2CCN(c3nsc4ccccc34)CC2)c(NC(C)=O)cc1OC | 120 °C |  |  |
| COc1cc(CCN2CCN(c3nsc4ccccc34)CC2)c(NC(=O)Cc2cccs2)cc1OC | 135 °C |  |  |
| COc1cc(CCN2CCN(c3nsc4ccccc34)CC2)c(NC(=O)Cc2ccc(Cl)cc2)cc1OC | 152 °C |  |  |
| COc1cc(CCN2CCN(c3nsc4ccccc34)CC2)c(NC(=O)Cc2ccccc2)cc1OC | 142 °C |  |  |
| COc1cc(CCN2CCN(c3nsc4ccccc34)CC2)c(NS(=O)(=O)c2cn(C)c(C)n2)cc1OC | 233 °C |  |  |
| COc1cc(CCN2CCN(c3nsc4ccccc34)CC2)c(NS(=O)(=O)c2c(C)nn(C)c2C)cc1OC | 196 °C |  |  |
| COc1cc(CCN2CCN(c3nsc4ccccc34)CC2)c(NC(=O)Nc2c(C)cccc2C)cc1OC | 96 °C |  |  |
| Cc1cc(C(=O)Nc2ccc(CCN3CCN(c4nsc5ccccc45)CC3)cc2)c(C)o1 [Example 27, 2,5-DIMETHYL-FURAN-3-CARBOXYLIC ACID {4-[2-(4-1,2-BENZISOTHIAZOL-3-YL-PIPERAZIN-1-YL)-ETHYL]-PHENYL}-AMIDE] |  | 8.20 | 8.84 |
| Cn1cnc(S(=O)(=O)Nc2ccc(OCCN3CCN(c4nsc5ccccc45)CC3)cc2)c1 [Example 44, 1-METHYL-1H-IMIDAZOLE-4-SULFONIC ACID {4-[2-(4-1,2-BENZISOTHIAZOL-3-YL-PIPERAZIN-1-YL)-ETHOXY]-PHENYL}-AMIDE] | 176 °C |  |  |
| COc1ccc(OC)c(S(=O)(=O)Nc2ccc(OCCN3CCN(c4nsc5ccccc45)CC3)cc2)c1 [Example 46, N-{4-[2-(4-1,2-BENZISOTHIAZOL-3-YL-PIPERAZIN-1-YL)-ETHOXY]-PHENYL}-2,5-DIMETHOXY-BENZENESULFONAMIDE] | 78 °C |  |  |
| O=S(=O)(Nc1ccc(OCCN2CCN(c3nsc4ccccc34)CC2)cc1)c1ccccc1 [Example 47, N-{4-[2-(4-1,2-BENZISOTHIAZOL-3-YL-PIPERAZIN-1-YL)-ETHOXY]-PHENYL}-BENZENESULFONAMIDE] | 65 °C |  |  |
| CC(C)=CC(=O)Nc1ccccc1CCN1CCN(c2nsc3ccccc23)CC1 [Example 50, 3-METHYL-BUT-2-ENOIC ACID {2-[2-(4-1,2-BENZISOTHIAZOL-3-YL-PIPERAZIN-1-YL)-ETHYL]-PHENYL}-AMIDE] | 52 °C |  |  |
| COc1cc(CCN2CCN(c3nsc4ccccc34)CC2)c(NS(=O)(=O)c2ccccc2F)cc1OC [Example 56, N-{2-[2-(4-1,2-BENZISOTHIAZOL-3-YL-PIPERAZIN-1-YL)-ETHYL]-4,5-DIMETHOXY-PHENYL}-2-FLUORO-BENZENESULFONAMIDE] | 167 °C |  |  |
| COc1cc(CCN2CCN(c3nsc4ccccc34)CC2)c(NS(=O)(=O)c2ccccc2C)cc1OC [Example 58, N-{2-[2-(4-1,2-BENZISOTHIAZOL-3-YL-PIPERAZIN-1-YL)-ETHYL]-4,5-DIMETHOXY-PHENYL}-2-METHYL-BENZENESULFONAMIDE] | 187 °C |  |  |
| COc1cc(CCN2CCN(c3nsc4ccccc34)CC2)c(NC(=O)Nc2ccc(F)cc2)cc1OC [Example 62, 1-{2-[2-(4-1,2-BENZISOTHIAZOL-3-YL-PIPERAZIN-1-YL)-ETHYL]-4,5-DIMETHOXY-PHENYL}-3-(4-FLUORO-PHENYL)-UREA] | 211 °C |  |  |
| COc1cc(CCN2CCN(c3nsc4ccccc34)CC2)c(NC(=O)NC2CCCCC2)cc1OC [Example 63, 1-{2-[2-(4-1,2-BENZISOTHIAZOL-3-YL-PIPERAZIN-1-YL)-ETHYL]-4,5-DIMETHOXY-PHENYL}-3-CYCLOHEXYL-UREA] | 156 °C |  |  |
| CC(C)=CC(=O)Nc1ccc(F)cc1CCN1CCN(c2nsc3ccccc23)CC1 [Example 64, 3-METHYL-BUT-2-ENOIC ACID {2-[2-(4-1,2-BENZISOTHIAZOL-3-YL-PIPERAZIN-1-YL)-ETHYL]-4-FLUORO-PHENYL}-AMIDE] | 175 °C |  |  |
| COc1cc(CCN2CCN(c3nsc4ccccc34)CC2)c(NC(=O)C=C(C)C)cc1OC [Example 65, 3-M ETHYL-BUT-2-ENOIC ACID {2-[2-(4-1,2-BENZISOTHIAZOL-3-YL-PIPERAZIN-1-YL)-ETHYL]-4,5-DIMETHOXY-PHENYL}-AMIDE] | 58 °C |  |  |
| Cc1cc(C(=O)Nc2ccc(CCN3CCN(c4nsc5ccccc45)CC3)cc2)n(C)n1 [Example 102, 2,5-DIMETHYL-2H-PYRAZOLE-3-CARBOXYLIC ACID {4-[2-(4-1,2-BENZISOTHIAZOL-3-YL-PIPERAZIN-1-YL)-ETHYL]-PHENYL}-AMIDE] |  | 8.09 | 9.60 |
| COc1cccc(S(=O)(=O)Nc2ccc(CCN3CCN(c4nsc5ccccc45)CC3)cc2)c1 [Example 364, N-{4-[2-(4-1,2-BENZISOTHIAZOL-3-YL-PIPERAZIN-1-YL)-ETHYL]-PHENYL}-3-METHOXY-BENZENESULFONAMIDE] |  | 8.07 | 9.54 |
| O=C1c2ccccc2CN1c1ccc(CCN2CCN(c3nsc4ccccc34)CC2)cc1 [Example 527, 2-{4-[2-(4-BENZO[D]ISOTHIAZOL-3-YL-PIPERAZIN-1-YL)-ETHYL]-PHENYL}-2,3-DIHYDRO-ISOINDOL-1-ONE] | 175.9 °C |  |  |
| O=C1c2ccccc2CN1c1cccc(CCN2CCN(c3nsc4ccccc34)CC2)c1 [Example 528, 2-{3-[2-(4-BENZO[D]ISOTHIAZOL-3-YL-PIPERAZIN-1-YL)-ETHYL]-PHENYL}-2,3-DIHYDRO-ISOINDOL-1-ONE] | 154.5 to 155.3 °C |  |  |
| O=C1c2ccccc2CN1c1ccccc1CCN1CCN(c2nsc3ccccc23)CC1 [Example 529, 2-{2-[2-(4-BENZO[D]ISOTHIAZOL-3-YL-PIPERAZIN-1-YL)-ETHYL]-PHENYL}-2,3-DIHYDRO-ISOINDOL-1-ONE] | 207.6 to 208 °C |  |  |
| O=C1c2ccccc2CN1c1ccc(OCCN2CCN(c3nsc4ccccc34)CC2)cc1 [Example 530, 2-{4-[2-(4-BENZO[D]ISOTHIAZOL-3-YL-PIPERAZIN-1-YL)-ETHOXY]-PHENYL}-2,3-DIHYDRO-ISOINDOL-1-ONE] | 166.4 to 166.6 °C |  |  |
